Experimental data published in US9365553B2, “Heterocyclic compound and H1 receptor antagonist” (Aska Pharmaceutical Co., Ltd., priority 2010, dated 2016).

Experiments:
[1] = tested on: histamine-induced skin reaction in mouse; test: Skin reaction test in mouse (Test Example 4); assay type: in vivo; conditions: oral, histamine 3 μg/50 μL/site intradermal, pigment area, read-out: Skin reaction test in mouse ID50
Description: (§1) Each mouse was sheared the day before test and fasted overnight. A low, middle or high dose of each test compound suspended in a 0.5% (W/V) CMC-Na aqueous solution was orally administered to the mouse. One hour after the administration, a 1% Evans Blue physiological saline solution (Tokyo Chemical Industry Co., Ltd.) was administered into the caudal vein in a dose of 10 mL/kg, and immediately histamine 3 μg/50 μL/site was intradermally administered into the dorsum. Thirty minutes after the administration, the mouse was anesthetized with diethyl ether and then euthanized by cervical dislocation. The skin was ablated, and the major axis and minor axis of a spot of the pigment exuded into the skin were measured to calculate the area of the pigment.

human H1 receptor = molecular target: T1, human H1 receptor (Homo sapiens, UniProt P35367); test: Human H1 receptor affinity test (Test Example 2); assay type: binding; conditions: CHO cell membrane preparation expressing human H1 receptor, [3H]-pyrilamine 2 nmol/L
T1 construct: purchased; host or cells: CHO cells
Description: Chinese hamster ovarian cells (CHO cells) having human H1 receptor forcibly express were purchased and used as an H1 receptor membrane preparation. […] To the resulting each sample, 50 μL of 8 nmol/L [^3H]-pyrilamine (final concentration: 2 nmol/L) was added and mixed. […] The glass filter was cut off and transferred in a vial. To the vial was added 5 mL of a scintillator (manufactured by National Diagnostics), and the mixture was shaken for not less than one hour. Thereafter, the radioactive concentration was measured by a liquid scintillation counter.

[2] = tested on: histamine-induced skin reaction in rat; test: Histamine-induced skin reaction test in rat (Test Example 3); assay type: in vivo; conditions: oral, histamine 10 μg/0.1 mL/site intradermal, pigment area, read-out: Skin reaction test in rat ID50
Description: as §1, with “Each mouse was sheared the day before test and fasted overnight. A low, middle or high dose of each test compound suspended in a 0.5% (W/V) CMC-Na aqueous solution was orally administered to the mouse.” left out, “5” for “10”, “10 μg/0.1 mL/site (manufactured by Wako Pure Chemical Industries, Ltd.)” for “3 μg/50 μL/site”, “rat” for “mouse”

[3] = tested on: mouse IgE-dependent ear edema model; test: Inhibitory effects on mouse IgE-dependent ear edema model (Test Example 8); assay type: in vivo; conditions: oral twice a day, dose a multiple of mouse ID50 (Dose column of Table E); for Inhibitory effects in each allergic reaction phase: Immediate phase: mouse ear swelling 1 hour after antigen; for Inhibitory effects in each allergic reaction phase: Late phase: mouse ear swelling 24 hours after antigen; for Inhibitory effects in each allergic reaction phase: Very late phase: mouse ear swelling 7 days after antigen;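 on all read-outs here: 5 or 10 times the mouse skin-reaction ID50 per dose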
Description: (§2) To each mouse, 0.25 mL of an anti-DNP-IgE antibody (manufactured by SIGMA-ALDRICH) was intravenously administered for passive sensitization. On the day following the administration, an antigen (DNFB solution; manufactured by Wako Pure Chemical Industries, Ltd.) was applied on the right ear to induce dermatitis (ear swelling). One hour, 24 hours and 7 days after the application of the antigen, the thickness of the right ear was measured by a thickness measuring apparatus (dial thickness gauge). […] The thickness of the right ear before the sensitization was measured beforehand; the inhibition rates of the swelling in immediate phase, late phase, and very late phase were calculated.

[4] = tested on: mouse IgE-dependent ear edema model; test: Inhibitory effects on mouse IgE-dependent ear edema model (Test Example 5); assay type: in vivo; conditions: oral twice a day, dose one-third of ID50 (Dose column of Table D); for Inhibitory effects in each allergic reaction phase: Immediate phase: mouse ear swelling 1 hour after antigen; for Inhibitory effects in each allergic reaction phase: Late phase: mouse ear swelling 24 hours after antigen; for Inhibitory effects in each allergic reaction phase: Very late phase: mouse ear swelling 7 days after antigen;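 on all read-outs here: doses given 1 h before and 6 h after antigen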
Description: as §2

rat H1 receptor = molecular target: T2, rat H1 receptor (Rattus norvegicus, UniProt P31390); test: Rat H1 receptor affinity test (Test Example 1); assay type: binding; conditions: rat cerebrum membrane preparation, [3H]-pyrilamine 2 nmol/L
T2 construct: An H1 receptor membrane preparation was prepared from rat cerebrum; from tissue; host or cells: rat cerebrum
Description: An H1 receptor membrane preparation was prepared from rat cerebrum. […] To the resulting each sample, 50 μL of 8 nmol/L [^3H]-pyrilamine (manufactured by PerkinElmer) (final concentration: 2 nmol/L) was added and mixed. After the mixture was incubated at a room temperature for 30 minutes, the reaction solution was collected on a glass filter by a cell harvester (manufactured by Molecular Devices), and then the filter was washed with the incubation buffer. The glass filter was cut off and transferred in a vial. To the vial was added 5 mL of a scintillator (manufactured by National Diagnostics), and the mixture was shaken for not less than one hour. Thereafter, the radioactive concentration was measured by a liquid scintillation counter.

T1 sequence (P35367 whole entry): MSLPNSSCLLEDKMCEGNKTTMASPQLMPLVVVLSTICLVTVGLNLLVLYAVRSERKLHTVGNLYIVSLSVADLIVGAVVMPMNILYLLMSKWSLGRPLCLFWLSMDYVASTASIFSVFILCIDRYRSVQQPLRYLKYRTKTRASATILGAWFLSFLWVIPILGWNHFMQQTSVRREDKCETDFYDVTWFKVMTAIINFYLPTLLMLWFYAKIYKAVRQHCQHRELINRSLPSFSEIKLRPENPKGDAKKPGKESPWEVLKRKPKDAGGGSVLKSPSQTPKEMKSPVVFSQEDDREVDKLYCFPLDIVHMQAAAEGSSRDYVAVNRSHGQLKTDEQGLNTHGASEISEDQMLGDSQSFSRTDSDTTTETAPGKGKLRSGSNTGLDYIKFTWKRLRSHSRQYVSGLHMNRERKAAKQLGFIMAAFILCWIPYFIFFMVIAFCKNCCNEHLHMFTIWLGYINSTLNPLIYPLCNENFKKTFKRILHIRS
T2 sequence (P31390 whole entry): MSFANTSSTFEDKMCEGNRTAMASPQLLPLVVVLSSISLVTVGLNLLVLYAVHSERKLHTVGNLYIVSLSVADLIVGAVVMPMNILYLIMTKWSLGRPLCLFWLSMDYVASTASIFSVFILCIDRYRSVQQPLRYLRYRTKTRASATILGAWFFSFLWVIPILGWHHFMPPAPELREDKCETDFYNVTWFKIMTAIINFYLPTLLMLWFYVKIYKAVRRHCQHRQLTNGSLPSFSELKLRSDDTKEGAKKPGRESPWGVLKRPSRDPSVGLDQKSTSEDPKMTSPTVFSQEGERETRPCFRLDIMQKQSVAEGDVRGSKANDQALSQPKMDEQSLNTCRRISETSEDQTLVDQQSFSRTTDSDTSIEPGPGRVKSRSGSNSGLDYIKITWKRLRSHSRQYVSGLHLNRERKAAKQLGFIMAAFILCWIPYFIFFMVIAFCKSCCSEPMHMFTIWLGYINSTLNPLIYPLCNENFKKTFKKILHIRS

SMILES: O=C(O)c1ccnc(CN2CCC(OC(c3ccccc3)c3ccc(F)cc3)CC2)c1 (stereo not drawn) [Example 39]
- ED50 [1]: 0.04 mg/kg
- IC50 (human H1 receptor): 6.8 nM
- ED50 [2]: 1.3 mg/kg
- Inhibitory effects in each allergic reaction phase: Immediate phase [3]: ++ (++ Inhibitory rate 45 to 20%)
- Inhibitory effects in each allergic reaction phase: Late phase [3]: ++ (++ Inhibitory rate 45 to 20%)
- Inhibitory effects in each allergic reaction phase: Very late phase [3]: ++ (++ Inhibitory rate 45 to 20%)
- Inhibitory effects in each allergic reaction phase: Immediate phase [4]: ++ (++ Inhibitory rate 45 to 25%)
- Inhibitory effects in each allergic reaction phase: Late phase [4]: ++ (++ Inhibitory rate 45 to 25%)
- Inhibitory effects in each allergic reaction phase: Very late phase [4]: ++ (++ Inhibitory rate 45 to 25%)
- IC50 (rat H1 receptor): 72 nM

SMILES: O=C(O)c1cccc(CN2CCC(=C3c4ccccc4C=Cc4cccnc43)CC2)c1 [Example 70]
- ED50 [1]: 0.12 mg/kg
- IC50 (human H1 receptor): 14 nM
- ED50 [2]: 1.6 mg/kg
- IC50 (rat H1 receptor): 28 nM

SMILES: O=C(O)c1cccc(CN2CCC(OC(c3ccccc3)c3ccc(Cl)cc3)CC2)n1 (stereo not drawn) [Example 22]
- ED50 [1]: 0.01 mg/kg
- IC50 (human H1 receptor): 13 nM
- ED50 [2]: 0.5 mg/kg
- IC50 (rat H1 receptor): 5.7 nM

SMILES: O=C(O)c1cccc(C(F)(F)N2CCC(OC(c3ccccc3)c3ccccc3)CC2)n1 [Example 37, 6-[(4-Benzhydryloxypiperidin-1-yl)difluoromethyl]pyridine-2-carboxylic acid]
- ED50 [1]: 0.06 mg/kg
- IC50 (human H1 receptor): 12 nM
- ED50 [2]: 3.2 mg/kg
- IC50 (rat H1 receptor): 75 nM

SMILES: O=C(O)c1cccc(CN2CCN(C(c3ccc(F)cc3)c3ccc(F)cc3)CC2)n1 [Example 11, 6-{4-[bis(4-fluorophenyl)methyl]piperazin-1-ylmethyl}pyridine-2-carboxylic acid]
- ED50 [1]: 0.01 mg/kg
- IC50 (human H1 receptor): 22 nM
- ED50 [2]: 0.3 mg/kg
- Inhibitory effects in each allergic reaction phase: Immediate phase [3]: ++ (++ Inhibitory rate 45 to 20%)
- Inhibitory effects in each allergic reaction phase: Late phase [3]: ++ (++ Inhibitory rate 45 to 20%)
- Inhibitory effects in each allergic reaction phase: Very late phase [3]: ++ (++ Inhibitory rate 45 to 20%)
- Inhibitory effects in each allergic reaction phase: Immediate phase [4]: ++ (++ Inhibitory rate 45 to 25%)
- Inhibitory effects in each allergic reaction phase: Late phase [4]: ++ (++ Inhibitory rate 45 to 25%)
- Inhibitory effects in each allergic reaction phase: Very late phase [4]: ++ (++ Inhibitory rate 45 to 25%)
- IC50 (rat H1 receptor): 280 nM

SMILES: O=C(O)c1cccc(CN2CCC(=C3c4ccccc4C=Cc4cccnc43)CC2)n1 [Example 71]
- ED50 [1]: 0.07 mg/kg
- IC50 (human H1 receptor): 14 nM
- ED50 [2]: 0.6 mg/kg
- IC50 (rat H1 receptor): 16 nM

SMILES: O=C(O)CCCN1CCC(O[C@@H](c2ccc(Cl)cc2)c2ccccn2)CC1 [Bepotastine]
- ED50 [1]: 0.02 mg/kg
- IC50 (human H1 receptor): 20 nM
- ED50 [2]: 0.5 mg/kg
- IC50 (rat H1 receptor): 170 nM

SMILES: O=C(O)c1cccc(CN2CCC(OC(c3ccccc3)c3ccc(F)c(F)c3)CC2)n1 (stereo not drawn) [Example 48]
- ED50 [1]: 0.05 mg/kg
- IC50 (human H1 receptor): 25 nM
- ED50 [2]: 2.9 mg/kg
- IC50 (rat H1 receptor): 53 nM

SMILES: O=C(O)c1cccc(CN2CCC(OC(c3ccccc3)c3ccccc3)CC2)n1 [Example 2, 6-(4-benzhydryloxypiperidin-1-ylmethyl)pyridine-2-carboxylic acid]
- ED50 [1]: 0.1 mg/kg
- IC50 (human H1 receptor): 10 nM
- ED50 [2]: 3.4 mg/kg
- Inhibitory effects in each allergic reaction phase: Immediate phase [3]: ++ (++ Inhibitory rate 45 to 20%)
- Inhibitory effects in each allergic reaction phase: Late phase [3]: ++ (++ Inhibitory rate 45 to 20%)
- Inhibitory effects in each allergic reaction phase: Very late phase [3]: + (+ Inhibitory rate 19 to 10%)
- Inhibitory effects in each allergic reaction phase: Immediate phase [4]: ++ (++ Inhibitory rate 45 to 25%)
- Inhibitory effects in each allergic reaction phase: Late phase [4]: ++ (++ Inhibitory rate 45 to 25%)
- Inhibitory effects in each allergic reaction phase: Very late phase [4]: + (+ Inhibitory rate 24 to 10%)
- IC50 (rat H1 receptor): 25 nM

SMILES: O=C(O)c1cc(CN2CCC(OC(c3ccccc3)c3ccccc3)CC2)cs1 [Example 5]
- ED50 [1]: 0.11 mg/kg
- IC50 (human H1 receptor): 10 nM
- ED50 [2]: 1.8 mg/kg
- IC50 (rat H1 receptor): 7 nM

SMILES: O=C(O)c1cccc(CN2CCC(=C3c4ccc(Cl)cc4CCc4cccnc43)CC2)c1 [Example 67, 3-[4-(8-Chloro-5,6-dihydrobenzo[5,6]cyclohepta[1,2-b]pyridin-11-ylidene)piperidin-1-ylmethyl]benzoic acid]
- ED50 [1]: 0.09 mg/kg
- ED50 [2]: 1.2 mg/kg

SMILES: CN(C)CC/C=C1/c2ccccc2COc2ccc(CC(=O)O)cc21 [Olopatadine]
- Inhibitory effects in each allergic reaction phase: Immediate phase [3]: ++ (++ Inhibitory rate 45 to 20%)
- Inhibitory effects in each allergic reaction phase: Late phase [3]: − (− Inhibitory rate less than 10%)
- Inhibitory effects in each allergic reaction phase: Very late phase [3]: − (− Inhibitory rate less than 10%)
- Inhibitory effects in each allergic reaction phase: Immediate phase [4]: ++ (++ Inhibitory rate 45 to 25%)
- Inhibitory effects in each allergic reaction phase: Late phase [4]: − (− Inhibitory rate less than 10%)
- Inhibitory effects in each allergic reaction phase: Very late phase [4]: + (+ Inhibitory rate 24 to 10%)
